Reference: the supplement of paper PMC6045584
± gives the standard deviation of the averaged measurements.

Compound: COc1cc2ncnc(Nc3ccc(F)c(Cl)c3)c2cc1OCCCN1CCOCC1 [GEFITINIB]
Assay: surviving fraction relative to DMSO-only wells; higher = less growth inhibition
Conditions: 500 nM; exposure time: 5 days
In short: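 Continuous five-day exposure to inhibitors at 0.5, 1, 5, 10, 50, 100, 500 and 1000 nM started 24 hours after log-phase tumour cell lines were seeded at 250–500 cells per well in 384-well plates. Luminescence was read after 10 minutes at room temperature. Viability is given as surviving fraction, meaning CellTiter-Glo luminescence normalised to the median of DMSO-only wells.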

| Test System | surviving fraction |
| --- | --- |
| 93VU HEADNECK | 0.449 ± 0.044 |
| 143B BONE | 1.14 ± 0.11 |
| A549 LUNG | 1.05 ± 0.047 |
| ASKA SYNOVIAL | 1.08 ± 0.053 |
| BT20 BREAST | 1.05 ± 0.04 |
| BT549 BREAST | 1.057 ± 0.007 |
| CADOES1 SOFT TISSUE | 0.953 ± 0.12 |
| CAL51 BREAST | 1.13 ± 0.015 |
| CAL72 BONE | 1.07 ± 0.074 |
| CAL120 BREAST | 0.995 ± 0.035 |
| CASKI CERVIX | 0.308 ± 0.018 |
| CCK81 LARGE INTESTINE | 0.0823 ± 0.018 |
| CHLA90 AUTONOMIC GANGLIA | 0.881 ± 0.044 |
| CME SYNOVIAL | 1.28 ± 0.096 |
| COLO320DM LARGE INTESTINE | 1.05 ± 0.14 |
| DU4475 BREAST | 1.01 ± 0.1 |
| G292 BONE | 0.954 ± 0.038 |
| H23 LUNG | 0.356 ± 0.05 |
| HCC38 BREAST | 1.1 ± 0.096 |
| HCC78 LUNG | 0.711 ± 0.23 |
| HCC202 BREAST | 0.542 ± 0.13 |

| Test System | surviving fraction |
| --- | --- |
| HCC1806 BREAST | 0.62 ± 0.069 |
| HMLE3 BREAST | 0.904 ± 0.1 |
| HMT3552 BREAST | 0.94 ± 0.017 |
| HOS BONE | 1.01 ± 0.021 |
| HOSMNG BONE | 1.09 ± 0.091 |
| HS57T BREAST | 1.01 ± 0.065 |
| HSSYII SYNOVIAL | 0.995 ± 0.051 |
| HT1080 SOFT TISSUE | 1.042 ± 0.0056 |
| HU09 BONE | 1.1 ± 0.16 |
| HUO3N1 BONE | 0.991 ± 0.052 |
| JIMT1 BREAST | 0.811 ± 0.043 |
| LM7 BONE | 0.963 ± 0.054 |
| LNCAP PROSTATE | 1.03 ± 0.08 |
| MDAMB134 BREAST | 1 ± 0.067 |
| MDAMB157 BREAST | 0.991 ± 0.026 |
| MDAMB231 BREAST | 1.06 ± 0.018 |
| MDAMB361 BREAST | 0.834 ± 0.092 |
| MDAMB436 BREAST | 1.08 ± 0.098 |
| MDAMB468 BREAST | 0.588 ± 0.026 |
| MFM223 BREAST | 1.12 ± 0.035 |

Same assay, conditions: 1000 nM; exposure time: 5 days

| Test System | surviving fraction |
| --- | --- |
| 22RV1 PROSTATE | 1.03 ± 0.12 |
| 93VU HEADNECK | 0.383 ± 0.062 |
| 143B BONE | 1.13 ± 0.15 |
| A549 LUNG | 1.03 ± 0.037 |
| ASKA SYNOVIAL | 1.1 ± 0.058 |
| BT20 BREAST | 0.984 ± 0.085 |
| BT549 BREAST | 1.11 ± 0.15 |
| CADOES1 SOFT TISSUE | 0.995 ± 0.16 |
| CAL51 BREAST | 1.07 ± 0.066 |
| CAL72 BONE | 1.05 ± 0.11 |
| CAL120 BREAST | 0.93 ± 0.042 |
| CASKI CERVIX | 0.213 ± 0.0095 |
| CCK81 LARGE INTESTINE | 0.076 ± 0.012 |
| CHLA90 AUTONOMIC GANGLIA | 0.801 ± 0.066 |
| CME SYNOVIAL | 1.18 ± 0.047 |
| COLO320DM LARGE INTESTINE | 1.06 ± 0.094 |
| DU4475 BREAST | 0.889 ± 0.069 |
| G292 BONE | 0.9402 ± 0.0094 |
| H23 LUNG | 0.346 ± 0.0093 |
| HCC38 BREAST | 1.18 ± 0.053 |
| HCC78 LUNG | 0.668 ± 0.19 |

| Test System | surviving fraction |
| --- | --- |
| HCC202 BREAST | 0.345 ± 0.013 |
| HCC1806 BREAST | 0.61 ± 0.01 |
| HMLE3 BREAST | 0.843 ± 0.083 |
| HMT3552 BREAST | 0.856 ± 0.043 |
| HOS BONE | 0.973 ± 0.013 |
| HOSMNG BONE | 1.07 ± 0.021 |
| HS57T BREAST | 0.9383 ± 0.0032 |
| HSSYII SYNOVIAL | 0.98 ± 0.065 |
| HT1080 SOFT TISSUE | 1.01 ± 0.034 |
| HU09 BONE | 0.952 ± 0.1 |
| HUO3N1 BONE | 0.974 ± 0.052 |
| JIMT1 BREAST | 0.773 ± 0.047 |
| LM7 BONE | 0.825 ± 0.016 |
| LNCAP PROSTATE | 0.947 ± 0.12 |
| MDAMB134 BREAST | 1.1 ± 0.064 |
| MDAMB157 BREAST | 0.864 ± 0.066 |
| MDAMB231 BREAST | 1.04 ± 0.037 |
| MDAMB361 BREAST | 0.834 ± 0.13 |
| MDAMB436 BREAST | 1.08 ± 0.1 |
| MDAMB468 BREAST | 0.503 ± 0.058 |
| MFM223 BREAST | 1.14 ± 0.07 |
